For 51 compounds, IC50 results are on record in US20210130473A1, “TGFßR1 INHIBITOR-ASGR ANTIBODY CONJUGATES AND USES THEREOF” (Silverback Therapeutics, Inc., priority 2019, published 2021).

The structures appear in SMILES notation.

Experiment [1] has as its system TGFβ/SMAD Signaling Pathway SBE reporter cell line. The experiment in a line: TGFb reporter assay in HEK293 SBE-LUC reporter cells (luciferase). Type of experiment: cell-based. To be noted: Homo sapiens, key of the table says IC50, read-out: EC50 (the source's name). As for the experimental part:
TGFβ/SMAD Signaling Pathway SBE reporter cell line was obtained from BPS Bioscience. Cells are passed, expanded, and stored in liquid nitrogen as per the supplier's instructions with the exception that growth media is changed to DMEM-C with Geneticin (DMEM supplemented with 10% fetal bovine serum, 1×NEAA, 1 mM Pyruvate, 2 mM glutamine, 50 μg/mL penicillin, 50 U/mL streptomycin and 400 μg/mL of Geneticin). The assay media is MEM supplemented with 0.5% fetal bovine serum, 1×NEAA, 1 mM Pyruvate, 50 μg/mL penicillin and 50 U/mL streptomycin.
Compounds are assayed to measure their activity as ALK5 inhibitors.
The HEK293 SBE-LUC reporter cells from Example 15 were grown in DMEM-C with Geneticin (DMEM supplemented with […], 1×NEAA, 1 mM Pyruvate, 2 mM glutamine, 50 μg/mL penicillin, 50 U/mL streptomycin and 400 ug/mL of Geneticin). The assay media was MEM supplemented with 0.5% fetal bovine serum, 1×NEAA, 1 mM Pyruvate, 50 μg/mL penicillin and 50 U/mL streptomycin.
The HEK293 SBE-LUC reporter cells were harvested from the tissue culture flasks by incubation in small quantity of Versene at room temperature for three to five minutes after the media in the flask is removed and cells rinsed with PBS. Cells were counted and diluted in the assay media at ˜0.8×10^6 cells/mL then 50 uL/well were added to 96-well assay plate. Test samples (at desired concentrations diluted in assay media) were added to assay plate containing the 50 uL/well of cells (or media only), 50 uL per well, and incubated for 5-6 hours at 37° C. in a 5% CO2 humidified incubator. After that time, 15 uL of TGFb diluted to 12.5 ng/mL in the assay media was added to the plate. Controls included TGFb titration (from 25 to 0 ng/mL) without inhibitors, and media only (without cells, inhibitor or TGFb). Plates were incubated at 37° C. in a 5% CO2 humidified incubator for 18h. Luciferase substrate solution was subsequently added at 75 uL per well, incubated in dark with shaking at room temperature for 10 min, and luminescence was measured using a luminometer.

Another experiment concerns the target T1, ALK5 (Homo sapiens, UniProt P36897).
T1 construct: purchased Reaction Biology Corp (Malvern, Pa.)
T1 sequence (P36897 34-503): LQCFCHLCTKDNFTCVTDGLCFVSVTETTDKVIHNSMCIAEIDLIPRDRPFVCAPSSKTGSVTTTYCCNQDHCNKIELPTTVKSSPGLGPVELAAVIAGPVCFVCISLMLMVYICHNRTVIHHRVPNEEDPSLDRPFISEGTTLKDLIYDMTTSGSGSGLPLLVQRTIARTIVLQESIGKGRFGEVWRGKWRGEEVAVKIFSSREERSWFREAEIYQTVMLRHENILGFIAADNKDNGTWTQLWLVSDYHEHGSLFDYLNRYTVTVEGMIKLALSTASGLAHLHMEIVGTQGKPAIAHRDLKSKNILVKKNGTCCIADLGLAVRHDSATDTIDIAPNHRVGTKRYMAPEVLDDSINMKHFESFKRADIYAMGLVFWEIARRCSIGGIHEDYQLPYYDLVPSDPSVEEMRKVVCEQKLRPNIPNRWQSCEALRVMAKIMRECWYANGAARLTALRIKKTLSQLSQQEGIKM
The experiment in a line: ALK5 enzyme inhibition assay (casein substrate, 10 uM ATP, 33P-ATP, filter-binding; Reaction Biology Corp). Type of experiment: biochemical. The method, then: ALK5 enzyme inhibition assays were performed by Reaction Biology Corp (Malvern, Pa.). 1 mg/mL of peptide substrate (casein) and 10 uM ATP were prepared in a mixture of fresh reaction buffer. The kinase was delivered into the substrate solution which was gently mixed. Compounds in 100% DMSO were added to the kinase reaction mixture by Acoustic technology (Echo550; nanoliter range) and the mixture was incubated for 20 min at room temperature. ^33P-ATP (Specific activity 10 uCi/uL) was added into the reaction mixture to initiate the reaction and the reaction mixture was incubated for 2 hours at room temperature. Radioactivity was detected by filter-binding method and kinase activity data were expressed as the percent remaining kinase activity in test samples compared to vehicle (dimethyl sulfoxide) reactions. IC50 values and curve fits were obtained using Prism (GraphPad Software).

Take `Cc1cccc(-c2nc(CNCCc3ccccc3F)[nH]c2-c2ccc3ncnn3c2)n1` [Compound 59]: the IC50 is 0.0001 to 0.01 µM in experiment [1] and 0.0001 to 0.05 µM on ALK5 (Table 11).
For `Cc1cccc(-c2nc(CNCc3cc(Cl)ccc3Cl)[nH]c2-c2ccc3ncnn3c2)n1` [Compound 5], the IC50 was 0.01 to 0.1 µM in experiment [1] and 0.05 to 0.1 µM on ALK5 (Table 11).
For `Cc1cccc(-c2nc(CNCc3ccccc3C)[nH]c2-c2ccc3ncnn3c2)n1` [Compound 21], the values for the IC50 (in experiment [1]; at ALK5 (Table 11)) were 0.0001 to 0.01 µM and 0.0001 to 0.05 µM, respectively.
On to `Cc1cccc(-c2nc(CNCc3cccc(Oc4cccnc4)c3)[nH]c2-c2ccc3ncnn3c2)n1` [Compound 57], for which the IC50 in experiment [1] lay within 0.01 to 0.1 µM.
As for `CC(=O)NC1Cc2cccc(NCc3nc(-c4cccc(C)n4)c(-c4ccc5ncnn5c4)[nH]3)c2C1` (stereo not shown) [Compound 1.23], the IC50 was in the range of 0.1 to 1 µM in experiment [1] and 0.01 to 0.1 µM on ALK5 (Table 12).
Take `Cc1cccc(-c2nc(CNCCc3c(F)cccc3F)[nH]c2-c2ccncc2)n1` [Compound 80]: the IC50 in experiment [1] is 0.1 to 1 µM.
With `Cc1cccc(-c2nc(CNC3CC3)[nH]c2-c2ccc3ncnn3c2)n1` [Compound 1.7], the IC50 in experiment [1] lay within 0.1 to 1 µM.
Still for that read-out and setting: under `Cc1cccc(-c2nc(CNCc3ccccc3)[nH]c2-c2ccc3nccnc3c2)n1` [Compound 77] stands 0.0001 to 0.01 µM; under `Cc1cccc(-c2nc(CNCc3ccccc3Oc3ccncc3)[nH]c2-c2ccc3ncnn3c2)n1` [Compound 55], 1 to 10 µM; under `Cc1cccc(-c2nc(CNCc3ccc4ccccc4c3)[nH]c2-c2ccc3ncnn3c2)n1` [Compound 1.58], 0.1 to 1 µM.
On to `Cc1cccc(-c2nc(CNCc3ccc4c(c3)OCO4)[nH]c2-c2ccc3ncnn3c2)n1` [Compound 1.41], for which the IC50 in experiment [1] lay in the range of 0.1 to 1 µM.
Regarding `Cc1cccc(-c2nc(CNCc3cccc(Oc4ccncc4)c3)[nH]c2-c2ccc3ncnn3c2)n1` [Compound 58], the IC50 in experiment [1] lay within 0.01 to 0.1 µM.
The same measure, in the same setting: under `Cc1cccc(-c2nc(CNCc3ccccc3)[nH]c2-c2ccnc3ccccc23)n1` [Compound 74] stands 0.1 to 1 µM; under `Cc1cccc(-c2nc(C3CCNC3)[nH]c2-c2ccc3ncnn3c2)n1` (stereo not shown) [Compound 1.50], 0.1 to 1 µM.
Still for that read-out and setting: the result for `Cc1cccc(-c2nc(CNC3CCCC3)[nH]c2-c2ccc3ncnn3c2)n1` [Compound 1.11] reads 0.01 to 0.1 µM; that for `Cc1cccc(-c2nc(CNC3CCCCC3)[nH]c2-c2ccc3ncnn3c2)n1` [Compound 1.12], 0.01 to 0.1 µM.
As to `Cc1cccc(-c2nc(CN3CCCCC3)[nH]c2-c2ccn3ncnc3c2)n1` [Compound 1.35], the IC50 in experiment [1] was 0.1 to 1 µM.
Same read-out and setting: under `Cc1cccc(-c2nc(CNCc3cccc4ccccc34)[nH]c2-c2ccc3ncnn3c2)n1` [Compound 1.57] stands 0.01 to 0.1 µM.
For `Cc1cccc(-c2nc(CNc3cncc(CN)c3)[nH]c2-c2ccc3ncnn3c2)n1` [Compound 1.19], in experiment [1], the IC50 is 0.1 to 1 µM.
Still for that read-out and setting: under `Cc1cccc(-c2nc(CNC3CCC3)[nH]c2-c2ccc3ncnn3c2)n1` [Compound 1.10] stands 0.1 to 1 µM; under `Cc1cccc(-c2nc(CNCCc3c(F)cccc3F)[nH]c2-c2ccnc3ccccc23)n1` [Compound 79], 0.1 to 1 µM; under `Cc1cccc(-c2nc(CNCc3ccccc3-c3ccccc3)[nH]c2-c2ccc3nccnc3c2)n1` [Compound 72], 0.01 to 0.1 µM.
Same read-out and setting: the result for `Cc1cccc(-c2nc(CNCc3cccc(Oc4ccccc4)c3)[nH]c2-c2ccc3ncnn3c2)n1` [Compound 56] reads 0.01 to 0.1 µM.
Same read-out and setting: the result for `Cc1cccc(-c2nc(CN[C@@H]3c4ccccc4C[C@H]3O)[nH]c2-c2ccc3ncnn3c2)n1` [Compound 1.46] reads 0.01 to 0.1 µM.
In the case of `Cc1cccc(-c2nc(CNC3CCNCC3)[nH]c2-c2ccn3ncnc3c2)n1` [Compound 1.39], in experiment [1], the IC50 was 1 to 10 µM.
The same measure, in the same setting: under `Cc1cccc(-c2nc(CNc3cccc4c3CCNC4)[nH]c2-c2ccc3ncnn3c2)n1` [Compound 1.4] stands 0.1 to 1 µM; under `Cc1cccc(-c2nc(CNc3ccc4c(c3)CNCC4)[nH]c2-c2ccc3ncnn3c2)n1` [Compound 1.1], 0.1 to 1 µM; under `Cc1cccc(-c2nc(CNCc3ccccc3)[nH]c2-c2ccccn2)n1` [Compound 75], 0.1 to 1 µM.
On to `Cc1cccc(-c2nc(CNC3CCOCC3)[nH]c2-c2ccc3ncnn3c2)n1` [Compound 1.14], for which the IC50 in experiment [1] is 0.01 to 0.1 µM.
On the same count and under the same terms, the result for `Cc1cccc(-c2nc(CNCC3CC3)[nH]c2-c2ccc3ncnn3c2)n1` [Compound 1.8] reads 0.1 to 1 µM; that for `Cc1cccc(-c2nc(CN[C@@H]3c4ccccc4C[C@@H]3O)[nH]c2-c2ccc3ncnn3c2)n1` [Compound 1.44], 0.01 to 0.1 µM.
Still for that read-out and setting: under `Cc1cccc(-c2nc(CNCc3ccccc3)[nH]c2-c2ccc3ncccc3n2)n1` [Compound 73] stands 0.1 to 1 µM.
On the same count and under the same terms, the result for `Cc1cccc(-c2nc(CN[C@H]3c4ccccc4C[C@@H]3O)[nH]c2-c2ccc3ncnn3c2)n1` [Compound 1.45] reads 0.01 to 0.1 µM.
In the case of `Cc1cccc(-c2nc(CNC3CCCCCC3)[nH]c2-c2ccc3ncnn3c2)n1` [Compound 1.13], the IC50 in experiment [1] was in the range of 0.01 to 0.1 µM.
`Cc1cccc(-c2nc(CNC3CCc4ccccc43)[nH]c2-c2ccc3ncnn3c2)n1` (stereo not shown) [Compound 1.26]: the IC50 in experiment [1] was in the range of 0.01 to 0.1 µM.
Same read-out and setting: the result for `Cc1cccc(-c2nc(CN3CCc4ccccc4C3)[nH]c2-c2ccn3ncnc3c2)n1` [Compound 1.40] reads 0.1 to 1 µM; that for `Cc1cccc(-c2nc(CNC3Cc4ccccc4C3)[nH]c2-c2ccc3ncnn3c2)n1` [Compound 1.27], 0.01 to 0.1 µM.
Still for that read-out and setting: the result for `Cc1cccc(-c2nc(CNCCc3cccc4ccccc34)[nH]c2-c2ccc3ncnn3c2)n1` [Compound 1.59] reads 0.01 to 0.1 µM.
Regarding `Cc1cccc(-c2nc(C3CCCCN3)[nH]c2-c2ccc3ncnn3c2)n1` (stereo not shown) [Compound 1.49], the IC50 in experiment [1] lay within 0.1 to 1 µM.
The same measure, in the same setting: under `Cc1cccc(-c2nc(CNCCc3ccnc4ccccc34)[nH]c2-c2ccc3ncnn3c2)n1` [Compound 1.60] stands 0.01 to 0.1 µM; under `Cc1cccc(-c2nc(CNc3cccc4c3CNCC4)[nH]c2-c2ccc3ncnn3c2)n1` [Compound 1.3], 0.1 to 1 µM.
On the same count and under the same terms, the result for `Cc1cccc(-c2nc(CNCC3CCCCC3)[nH]c2-c2ccc3ncnn3c2)n1` [Compound 1.42] reads 0.01 to 0.1 µM; that for `Cc1cccc(-c2nc(C3CNC3)[nH]c2-c2ccc3ncnn3c2)n1` [Compound 1.53], 1 to 10 µM.
With `Cc1cccc(-c2nc(CNc3ccc4c(c3)CCNC4)[nH]c2-c2ccc3ncnn3c2)n1` [Compound 1.2], the IC50 in experiment [1] fell in the range of 0.1 to 1 µM.
Same read-out and setting: under `Cc1cccc(-c2nc(CNC3CCCNC3)[nH]c2-c2ccn3ncnc3c2)n1` (stereo not shown) [Compound 1.38] stands 1 to 10 µM; under `Cc1cccc(-c2nc(CN[C@H]3c4ccccc4C[C@H]3O)[nH]c2-c2ccc3ncnn3c2)n1` [Compound 1.43], 0.01 to 0.1 µM.
As to `Cc1cccc(-c2nc(CNCCc3c(F)cccc3F)[nH]c2-c2ccc3ncccc3c2)n1` [Compound 89], the IC50 on ALK5 (Table 11) lay within 0.0001 to 0.05 µM.
Take `Cc1cccc(-c2nc(CNCCc3cccc4ncccc34)[nH]c2-c2ccc3ncnn3c2)n1` [Compound 1.61]: the IC50 in experiment [1] fell in the range of 0.01 to 0.1 µM.
Same read-out and setting: under `Cc1cccc(-c2nc(CNCc3ccccc3)[nH]c2-c2ccc3c(c2)OCO3)n1` [Compound 76] stands 0.01 to 0.1 µM; under `Cc1cccc(-c2nc(CN3Cc4ccccc4C3=O)[nH]c2-c2ccc3ncnn3c2)n1` [Compound 1.56], 0.01 to 0.1 µM; under `Cc1cccc(-c2nc(CNCCc3c(F)cccc3F)[nH]c2-c2ccc3ncccc3n2)n1` [Compound 78], 0.0001 to 0.01 µM.
